Results as given in patent US12269816B2, “Benzothiophene compound, preparation method therefor and use thereof” (SICHUAN KELUN-BIOTECH BIOPHARMACEUTICAL CO., LTD., priority 2019, dated 2025).

How the values were obtained:
[1] = test system: STING and its downstream proteins TBK1 and IRF3 in THP-1 cells; assay: Western blotting of phosphorylation of STING signal pathway proteins in human THP-1 cells; format: cell-based; settings: 3 hours, protein blotting, FIGS. 1-5, result in words
Text: In this experiment, the changes in the phosphorylation levels of STING and its downstream proteins TBK1 (TANK-binding kinase 1) and IRF3 (interferon regulatory factor 3) were detected by protein blotting to evaluate the agonistic effect of the test compounds on the STING signal pathway at the cellular level.
The THP-1 cells in the logarithmic phase were centrifuged, and resuspended in a cell culture solution to a density of […]. The cell suspension was inoculated into a 12-well cell culture plate (Corning) at 0.5 mL/well. The compound to be tested was diluted with a cell culture solution to 2× working solution concentration (control compounds 1 and 2: 60 μM; compounds 1 and 3: 0.6 μM, 6 μM, and 60 μM; compounds 2, 4, 6 and 8: 6 μM, 20 μM, and 60 μM). 0.5 mL of the diluted solution of the compound was added into a 12-well plate (500 μl of the culture solution containing 2% DMSO was added into the negative control well), and the plate was incubated in a cell incubator for 3 hours. After the incubation, the cells were collected by centrifugation, lysed with 60 μL cell lysis buffer (CST) for 30 minutes, and centrifuged at 12,000 rpm for 15 minutes. The supernatant was collected to determine the protein concentration, and then an appropriate amount of 5× protein loading buffer was added. The mixture was heated at 95° C. for 10 minutes to prepare a protein electrophoresis sample. Finally protein blotting was performed to detect the phosphorylation level of the corresponding protein. The primary antibodies used in the protein blotting were purchased from CST: STING (D2P2F) rabbit mAb, Phospho-STING (Ser366) rabbit mAb, Phospho-IRF3 (Ser396) (D601M) rabbit mAb, IRF3 (D83B9) rabbit mAb, TBK1/NAK (D1B4) rabbit mAb, Phospho-TBK1/NAK (Ser172) (D52C2) XP® rabbit mAb, and GAPDH (D16H11) rabbit mAb; and the secondary antibody horseradish peroxidase-conjugated goat anti-rabbit IgG (H+L) was purchased from Zsgb-bio.

[2] = test system: STING pathway cytokine mIFN-β in mouse Raw264.7 cells; assay: ELISA of STING pathway cytokine mIFN-β expression in mouse Raw264.7 cells; format: cell-based; settings: for Emax: highest expression of mIFN-β; for Emax / EC50: 6 h, ELISA; for EC50: mIFN-β expression; for agonistic effect on the expression of mIFN-β: result in words
Text: In this experiment, the expression of STING signal pathway cytokine mIFN-β was detected in Raw264.7 cells (Nanjing Cobioer) by the ELISA method, so as to evaluate the agonistic effect of the compound to be tested on the expression of STING pathway cytokine mIFN-β at the cellular level.
Raw264.7 cells (Nanjing Cobioer) in the logarithmic phase were centrifuged, and resuspended in a cell culture solution to a density of 1.6×10^6 cells/ml. The cell suspension was inoculated into a 24-well cell culture plate (Corning) at 250 μL/well. The mother liquor of the compound to be tested was gradiently diluted with a cell culture solution to obtain a 2× working concentration diluted solution (control compound 1 was diluted at a 3-fold gradient: 200, 66.67, 22.22, 7.41, 2.47, 0.82, 0.27 and 0 μM; control compound 2 was diluted at a 2-fold gradient: 200, 100, 50, 25, 12.5, 6.25, 3.125 and 0 μM; and compounds 4, 6 and 8 were diluted at a 4-fold gradient: 200, 50, 12.5, 3.13, 0.78, 0.20, 0.049 and 0 μM). The 2× working concentration diluted solution of the compound was added into a 24-well plate (250 μl of the culture solution containing 2% DMSO was added into the negative control well) at 250 μL/well. The culture plate was then placed in a cell incubator, and incubated for 6 h. After the cell incubation, the supernatant was collected by centrifugation at 300 g×5 min, and the mIFN-β content (pg/ml) in the cell culture supernatant was detected according to the operating instructions of the VeriKinem Mouse IFN Beta ELISA Kit from PBL (obtained by conversion of the OD450 nm absorbance-mIFN-β standard concentration standard curve and the OD450 nm absorbance value read by the microplate reader). EC50 was calculated through log(agonist) vs. response—Variable slope fitting by the Graphpad Prism software, and the experimental results are shown in Table 3.
In the table, EC50 refers to the concentration of a compound when the expression of mIFN-β generated by stimulation of the compound reaches half of Emax; and Emax refers to the highest expression of mIFN-β generated by stimulation of the compound.

[3] = test system: STING-mediated interferon (IFN) signal reporter gene in THP1-Blue™ ISG cells; assay: STING-mediated interferon (IFN) signal SEAP reporter gene assay in THP1-Blue ISG cells; format: cell-based, human; settings: for EC50: Homo sapiens, 16 h incubation, SEAP reporter read at OD620nm; for Emax (OD620nm): highest OD620nm value generated by stimulation of the compound, 16 h; for agonistic effect on the STING-mediated Interferon (IFN) signal pathway: result in words
Text: In this experiment, the activity of the SEAP (secreted embryonic alkaline phosphatase) reporter gene regulated by the IFN regulatory factor (interferon regulatory factor) was detected in the THP1-Blue™ ISG cells (InvivoGen) to evaluate the agonistic effect of the compounds to be tested on the STING-mediated IFN signal pathway at the cellular level.
The THP1-Blue™ ISG cells (InvivoGen) in the logarithmic phase were centrifuged, and resuspended in a cell culture solution to a density of 2×10^6 cells/ml. The cell suspension was inoculated in a 96-well cell culture plate (Corning) at 50 μL/well. The mother liquor of the compound to be tested was gradiently diluted with a cell culture solution to obtain a 2× working concentration diluted solution (control compounds 1 and 2 were diluted at a 3-fold gradient: 200, 66.67, 22.22, 7.41, 2.47, 0.82, 0.27 and 0 μM; compounds 1, 2, 4, 6, 8, and 23 were diluted at a 8-fold gradient: 60, 7.5, 0.94, 0.12, 0.015, 0.0018, 0.00023 and 0 μM; and compounds 3 and 5 were diluted at a 10-fold gradient: 10, 1, 0.1, 0.01, 0.001, 0.0001, 0.00001 and 0 μM). The 2× working concentration diluted solution of the compound was added into a 96-well plate (50 μl of the culture solution containing 2% DMSO was added into the negative control well) at 50 μL/well. The culture plate was then placed in a cell incubator, and incubated for 16 h. After the cell incubation, 10 μL of the cell culture supernatant was transferred to a 96-well plate, and a QUANTI-Blue (InvivoGen) solution was added at 90 μL/well. The cells were incubated at 37° C. for 3 h. The absorbance at 620 nm (OD620nm) was read with a microplate reader.
In the table, EC50 refers to the concentration of a compound when ODM620nm value generated by stimulation of the compound reaches half of Emax; and Emax refers to the highest OD620nm value generated by stimulation of the compound.

EC50 [2]	EC50 [3]	SMILES	agonistic effect on the phosphorylation levels of STING, TBK1 and IRF3 [1]	Emax [2]	agonistic effect on the expression of mIFN-β [2]	Emax (OD620nm) [3]	agonistic effect on the STING-mediated Interferon (IFN) signal pathway [3]
3.6 µM	0.0355 µM	COc1cc2sc(C(=O)N(C)CCC(=O)O)cc2cc1OCCCOc1cc2sc(C(=O)CCC(=O)O)cc2cc1OC [Compound 4, 4-(6-(3-((2-((2-carboxyethyl)(methyl)carbamoyl)-6-methoxybenzo[b]thiophen-5-yl)oxy)propoxy)-5-methoxybenzo[b]thiophen-2-yl)-4-oxobutanoic acid]	strong agonistic effects	1082.21 pg/mL	strong agonistic effect	1.97 OD620nm	strong agonistic effects
3.8 µM	0.0745 µM	COc1cc2sc(C(=O)CCC(=O)O)cc2cc1OCCCOc1cc2sc(C(=O)N(C)CCC(=O)O)cc2cc1OC [Compound 6, 4-(5-(3-((2-((2-carboxyethyl)(methyl)carbamoyl)-5-methoxybenzo[b]thiophen-6-yl)oxy)propoxy)-6-methoxybenzo[b]thiophen-2-yl)-4-oxobutanoic acid]	strong agonistic effects	1012.51 pg/mL	strong agonistic effect	1.88 OD620nm	strong agonistic effects
0.56 µM	0.0553 µM	COc1cc2sc(C(=O)CCC(=O)O)cc2cc1OCCCOc1cc2cc(C(=O)N(C)CCC(=O)O)sc2cc1OC [Compound 8, 4-(5-(3-((2-((2-carboxyethyl)(methyl)carbamoyl)-6-methoxybenzo[b]thiophen-5-yl)oxy)propoxy)-6-methoxybenzo[b]thiophen-2-yl)-4-oxobutanoic Acid]	strong agonistic effects	1176.75 pg/mL	strong agonistic effect	1.73 OD620nm	strong agonistic effects
